One assay has as its target PfCyRPA (Plasmodium falciparum, UniProt Q8IFM8). As to the kind of experiment: biochemical.
Assay [1] has as its target New Delhi metallo-beta-lactamase 2 (NDM2) (Klebsiella pneumoniae, UniProt C7C422, P28A). The experiment in a line: biochemical.

Each structure is given as a SMILES string.

In general, Kd refers to a measure of binding affinity in units of concentration. Read a high Kd as lower affinity.

Sequence of PfCyRPA (Q8IFM8 29-362): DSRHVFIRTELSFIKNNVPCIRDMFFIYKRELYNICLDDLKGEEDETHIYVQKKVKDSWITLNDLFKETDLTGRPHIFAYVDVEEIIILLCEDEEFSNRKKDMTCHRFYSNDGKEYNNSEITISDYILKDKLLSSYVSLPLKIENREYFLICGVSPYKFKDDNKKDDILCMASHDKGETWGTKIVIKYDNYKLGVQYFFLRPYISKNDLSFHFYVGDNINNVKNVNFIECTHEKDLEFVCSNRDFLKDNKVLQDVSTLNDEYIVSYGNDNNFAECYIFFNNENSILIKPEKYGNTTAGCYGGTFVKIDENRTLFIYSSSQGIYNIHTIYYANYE
Sequence of New Delhi metallo-beta-lactamase 2 (NDM2) (C7C422 29-270 P28A (numbered from the first residue shown)): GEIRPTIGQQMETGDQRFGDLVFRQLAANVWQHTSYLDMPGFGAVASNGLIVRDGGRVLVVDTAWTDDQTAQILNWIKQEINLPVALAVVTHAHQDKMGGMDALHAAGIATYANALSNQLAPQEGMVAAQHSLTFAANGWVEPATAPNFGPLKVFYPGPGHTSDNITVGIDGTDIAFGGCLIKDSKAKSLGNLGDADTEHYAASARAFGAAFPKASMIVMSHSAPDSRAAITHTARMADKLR

`On1ccccc1=S` [1-Hydroxy-2(1H)-pyridinethione]: the Kd on PfCyRPA was found to be 169 µM; in assay [1], 894 µM.

The values are drawn from patent US20260256822A1, “ENTRY-MODULATING AGENTS AND USES THEREFOR” (priority 2022, published 2026).
